Earlier results, collected in article PMC8683664 (International Journal of Pharmaceutics: X, 2021).
Converted amounts (≈) assume the structure as drawn. Where two headings read alike, the source gives them in different places.

Key:
SAR-CoV-2 = conditions: human airway epithelial (HAE) cells, value in brackets ref Agostini et al., 2018
SARS-CoV-2 [1] = conditions: 2020; for EC50 in Calu-3 2B4 cells: value in brackets ref Pruijssers et al.; for EC50: read-out: EC50 in Calu-3 2B4 cells, Calu-3 2B4 cells ref Pruijssers et al.
SARS-CoV-2 [2] = conditions: read-out: EC50 in Calu-3; continuous human lung epithelial cell line (Calu-3), prescribing information of Veklury ref Gilead Sciences, Inc., 2020
severe COVID-19 patients = conditions: 10-day course, placebo 15 days ref Beigel et al., 2020

Row | SMILES | EC50 against SAR-CoV-2 in HAE (SAR-CoV-2) [µg/mL] | EC50 in Calu-3 2B4 cells (SARS-CoV-2 [1]) [µg/mL] | EC50 (SARS-CoV-2 [1]) [nM] | EC50 (SARS-CoV-2 [2]) [nM] | recovery time (severe COVID-19 patients) [days]
1 | N#C[C@@]1(c2ccc3c(N)ncnn23)O[C@H](CO)[C@@H](O)[C@H]1O [GS-441524] | 0.05243 (≈ 0.18 µM) | 0.1806 (≈ 0.62 µM) | 620 | – | –
2 | CCC(CC)COC(=O)[C@H](C)N[P@](=O)(OC[C@H]1O[C@@](C#N)(c2ccc3c(N)ncnn23)[C@H](O)[C@@H]1O)Oc1ccccc1 [remdesivir] | 0.04218 (≈ 0.07 µM) | 0.16873 (≈ 0.28 µM) | 280 | 280 | 11
